Converted amounts (≈) assume the structure as drawn. Where two headings read alike, the source gives them in different places. Blank lines part the entries; values can stand above or below the compound they belong to.
Legend:
Assay in all cases: microbe, parasite or virus in culture
[1] = system: Pichia kudriavzevii C. krusei; set-up: species or system Candida strains; broth microdilution antifungal susceptibility according to EUCAST protocols, growth inhibition MIC; settings: DSY2293, EUCAST, read-out: MIC Fluconazole
Description: (§1) The results of [compound left out] susceptibility assays with several clinically relevant Candida species are shown on Fig. 2B. All strains, except C. glabrata, were highly susceptible to [compound left out]. […] [compound left out] […] The yeast and bacterial strains used in the study are listed in Table S1 in the supplemental material. NPs were dissolved in DMSO to 10 μg/ml. [compound left out] [compound left out] was purchased from Phytolab (GmbH), dissolved in DMSO at a 2 mM concentration, heated for 20 min at 50°C for solubilization, and stored at −20°C until usage.

[2] = system: C. albicans; set-up: species or system Candida strains; broth microdilution antifungal susceptibility according to EUCAST protocols, growth inhibition MIC; settings: Candida albicans, EUCAST, read-out: MIC Fluconazole
Description: as §1

[3] = system: C. tropicalis; set-up: species or system Candida strains; broth microdilution antifungal susceptibility according to EUCAST protocols, growth inhibition MIC; settings: Candida tropicalis, EUCAST, read-out: MIC Fluconazole
Description: as §1

[4] = system: Pichia kudriavzevii C. krusei; set-up: species or system Candida strains; broth microdilution antifungal susceptibility in YNB buffered at pH 7.0, growth inhibition MIC
Description: as §1

[5] = system: C. albicans; set-up: species or system Candida strains; broth microdilution antifungal susceptibility in YNB buffered at pH 7.0, growth inhibition MIC; settings: Candida albicans, YNB pH 7.0
Description: as §1

[6] = system: C. tropicalis; set-up: species or system Candida strains; broth microdilution antifungal susceptibility in YNB buffered at pH 7.0, growth inhibition MIC; settings: Candida tropicalis, YNB pH 7.0
Description: as §1

MIC [1]: 32 µg/mL (≈ 104 µM) | MIC ([2]; DSY227): 0.5 µg/mL (≈ 1.63 µM) | MIC ([2]; DSY288): 1 µg/mL (≈ 3.27 µM) | MIC ([2]; DSY297): 2 µg/mL (≈ 6.53 µM) | MIC ([2]; DSY299): 0.25 µg/mL (≈ 0.816 µM) | MIC ([3]; DSY381): 0.5 µg/mL (≈ 1.63 µM) | MIC ([3]; DSY2274): 2 µg/mL (≈ 6.53 µM) | MIC ([3]; DSY2336): 16 µg/mL (≈ 52.2 µM) | MIC ([3]; DSY2374): 8 µg/mL (≈ 26.1 µM) | MIC ([3]; DSY2825): 128 µg/mL (≈ 418 µM) | MIC ([3]; DSY2897): 4 µg/mL (≈ 13.1 µM)
SMILES: OC(Cn1cncn1)(Cn1cncn1)c1ccc(F)cc1F [Fluconazole]

SMILES: C[C@H]1CC[C@]2(NC1)O[C@H]1C[C@H]3[C@@H]4CC[C@H]5C[C@@H](O)CC[C@]5(C)[C@H]4CC[C@]3(C)[C@H]1[C@@H]2C [compound 22, Tomatidine]
MIC ([4]; DSY2293, YNB pH 7.0): 0.625 µM (≈ 0.26 µg/mL) | MIC ([4]; DSY2294, YNB pH 7.0): > 40 µM | MIC ([4]; DSY2302, YNB pH 7.0): 1.25 µM (≈ 0.52 µg/mL) | MIC ([5]; DSY227): 0.625 µM (≈ 0.26 µg/mL) | MIC ([5]; DSY281): 0.312 µM (≈ 0.13 µg/mL) | MIC ([5]; DSY290): 2.5 µM (≈ 1.04 µg/mL) | MIC ([6]; DSY381): 0.312 µM (≈ 0.13 µg/mL) | MIC ([6]; DSY826): 0.15 µM (≈ 0.0623 µg/mL) | MIC ([6]; DSY2274): 2.5 µM (≈ 1.04 µg/mL) | MIC ([6]; DSY2310): 1.25 µM (≈ 0.52 µg/mL) | MIC ([6]; DSY2825): 5 µM (≈ 2.08 µg/mL)

— article PMC5571344, “Identification and Mode of Action of a Plant Natural Product Targeting Human Fungal Pathogens” (Antimicrobial Agents and Chemotherapy, 2017)
